Read-outs that look alike come from different tables or passages of the source.
Experiments:
[1] = target: hERG channel (Homo sapiens (Human), UniProt Q12809)
Text: Fluorescence polarization (FP) readout technology is based on the observation that when a small fluorescent molecule (the tracer) is excited by the polarized light, the emitted light is largely depolarized because of the rapid rotation of the molecule in the solution during its fluorescence lifetime. The hERG predictor assay provides valuable information about the possible binding of test compounds to the potassium channel and potential QT prolongation on […].
All experiments were performed using the Predictor™ hERG Fluorescence Polarization Assay in accordance with the manufacturer's protocol PV5365 (Invitrogen, Carlsbad, Calif.).
The hERG reaction was performed by incubating the tracer and membranes with hERG channel for 2-4 hours in the solution. The fluorescence polarization was maximal when nothing interfered with the reaction of the tracer and hERG membranes (minimal tracer rotation). But when a tested compound competed with the tracer for the hERG channel, the polarization of emitted light lowered due to the ability of free unbound tracer to rotate rapidly in the solution.
All test points for the compounds were performed in quadruplicates. Three dilutions of the tested compounds were assessed—1 μM, 5 μM and 20 μM.

[2] = test system: TA 1537; experiment: Ames Test, strain TA 1537
Text: The test used amino acid-dependent strains of Salmonella typhimurium and Escherichia coli to detect point mutations which involved substitution, addition or deletion of one or a few DNA base pairs. Point mutations were introduced in the histidine (Salmonella typhimurium) or the tryptophan (Escherichia coli) operon, making the tester strains incapable of producing these amino acids. The test detected mutations that revert the mutations present in the bacteria, restoring the functional capability to synthesize histidine or tryptophan. The revertant bacteria were detected by the ability to grow in the absence of the amino acid required by the parent test strain. A mutagenic potential of a tested compound was assessed by exposing these bacterial strains to different concentrations of the compounds and estimating number of revertant colonies grown in the absence (trace quantities) of the amino acid.
DMSO was used as the negative control.
For each experiment, tester strain cultures were grown overnight in Oxoid nutrient broth #2 at 37° C. with shaking at 235 rpm to a density of 1-2×10^9 colony forming units/mL (OD540˜2).
The tester strain (10 μL of night culture) was mixed with the test agent (10 µL of the DMSO stock) and GM liquid medium (30 μL). The obtained mixture was incubated at room temperature for 5 min in a sterile 1.5 mL tube. Then, to the tube was added 200 μL of molten top agar stored at 44° C. to prevent solidifying. After mixing with a pipette, the mixture was poured onto the surface of a GM agar plate (2.0 mL of GM agar per plate). After solidifying the top agar, the plate was inverted and incubated at 37° C. for 48 hours. Then, results were expressed as number of revertant colonies per plate.

[3] = test system: HepG2 cells; experiment: Cytotoxicity assay (resazurin), HepG2 cell proliferation inhibition; type: cell-based; details: Homo sapiens, 24 hours
Experimental: Compounds 1-4 and 31 were tested in a cytotoxicity assay. The assay was based on the conversion of the non-fluorescent dye resazurin to the fluorescent compound rezorufin in the reducing environment of living cell cytoplasm. The more living cells in a sample result in higher fluorescence, while less living cells result in lower fluorescence.
HepG2 cells were cultivated in a humidified atmosphere at 37° C. and 5% CO2 in 75 cm^2 flasks to 80-90% of confluence and split twice per week with a subcultivation ratio of 1:4. The cell layer was rinsed with PBS to remove all traces of serum. Then 3.0 mL of solution containing 0.25% (w/v) trypsin and 0.53 mM EDTA was added to the flask and incubated about 10 minutes. The HepG2 cells were detached using a scraper and re-suspended in DMEM containing 10% FBS and 2 mM glutamine. The cell suspension with a final concentration of 5×10^5 cells/mL was dispensed into sterile 96-well black wall clear flat bottom plates as previously described (McMillian et al. (2002) Cell Biol. Toxicol. 18(3):157-173; Mulvihill et al. (2009) Future Med. Chem. 1(6):1153-1171) and the test compounds were added.
The compound DMSO stock solutions were diluted with PBS to achieve an intermediate concentration of 1 mM. The cell proliferation assessment was performed at different concentrations of compounds ranging from 0.1 μM to 100 μM. Doxorubicin at a final concentration of 20 μM was used as a positive control. After compound addition, cells were incubated for 24 hours in a humidified atmosphere at 37° C. and 5% CO2.
Resazurin was added to the final concentration (50 μM) and incubated for 4 hours under the same conditions. Presence of rezorufin (cell viability) was quantified by measuring fluorescence (Ex—490 nm, Em—540 nm; see Vega-Avila and Pugsley (2011) Proc. West Pharmacol. Soc. 54:10-14).
The percent of cell proliferation inhibition was calculated by applying the following formula: […]

[4] = test system: HeLa cells; experiment: Mitochondrial membrane potential (JC-10 assay); type: cell-based, human; details: 5 μM, compared to DMSO control
Experimental: In order to exclude compounds that diminish the mitochondrial membrane potential, a JC-10 assay was used. HeLa cells were plated in 384-well plates and treated with different doses of CCCP or with 5 μM of Compounds 1, 2, 3, 4, and 31 as indicated for 2 h. The JC-10 dye was added to the live cells and cells are stained for 45 minutes. The plates were then measured with a fluorescent plate reader. JC-10 is a mitochondrial dye that emits red fluorescence in the presence of mitochondrial membrane potential. The fluorescence will change to green in the absence of mitochondrial membrane potential. […] Shown are average values of 3 independent experiments. Statistical analysis was performed by one-way ANOVA with Tukey's post-hoc test. ***, p<0.0005.
Mitochondrial depolarization was assessed using a JC10 assay kit (Sigma, MAK159). HeLa Parkin cells were seeded with […] in 20 μL volume into 384-well plates with clear bottom. The following day 5 μL of CCCP or compounds were added as 5× solutions. Equal volume of DMSO served as a negative control. Cells were incubated for 4 h before 12.5 μL of JC10 dye diluted in buffer A was added to the wells. One hour later the reaction was stopped with 12.5 μL of buffer B and the plate was measured immediately on a Spectramax M5 plate reader (Molecular devices) with bottom read using dual fluorescence (green: Ex 485 nm, Em 538 nm, cut-off at 515 nm; red: Ex 544 nm, Em 590 nm, cut-off at 570 nm). Mitochondrial depolarization was assessed by building the green to red ratio.

[5] = TA 1537, 50 μM (row printed 100; conc. column shifted)
[6] = TA 1537, 100 μM (row printed 200; conc. column shifted)
[7] = TA 1537, 200 μM (row printed 300; conc. column shifted)

Sequence of hERG channel (Q12809 whole entry): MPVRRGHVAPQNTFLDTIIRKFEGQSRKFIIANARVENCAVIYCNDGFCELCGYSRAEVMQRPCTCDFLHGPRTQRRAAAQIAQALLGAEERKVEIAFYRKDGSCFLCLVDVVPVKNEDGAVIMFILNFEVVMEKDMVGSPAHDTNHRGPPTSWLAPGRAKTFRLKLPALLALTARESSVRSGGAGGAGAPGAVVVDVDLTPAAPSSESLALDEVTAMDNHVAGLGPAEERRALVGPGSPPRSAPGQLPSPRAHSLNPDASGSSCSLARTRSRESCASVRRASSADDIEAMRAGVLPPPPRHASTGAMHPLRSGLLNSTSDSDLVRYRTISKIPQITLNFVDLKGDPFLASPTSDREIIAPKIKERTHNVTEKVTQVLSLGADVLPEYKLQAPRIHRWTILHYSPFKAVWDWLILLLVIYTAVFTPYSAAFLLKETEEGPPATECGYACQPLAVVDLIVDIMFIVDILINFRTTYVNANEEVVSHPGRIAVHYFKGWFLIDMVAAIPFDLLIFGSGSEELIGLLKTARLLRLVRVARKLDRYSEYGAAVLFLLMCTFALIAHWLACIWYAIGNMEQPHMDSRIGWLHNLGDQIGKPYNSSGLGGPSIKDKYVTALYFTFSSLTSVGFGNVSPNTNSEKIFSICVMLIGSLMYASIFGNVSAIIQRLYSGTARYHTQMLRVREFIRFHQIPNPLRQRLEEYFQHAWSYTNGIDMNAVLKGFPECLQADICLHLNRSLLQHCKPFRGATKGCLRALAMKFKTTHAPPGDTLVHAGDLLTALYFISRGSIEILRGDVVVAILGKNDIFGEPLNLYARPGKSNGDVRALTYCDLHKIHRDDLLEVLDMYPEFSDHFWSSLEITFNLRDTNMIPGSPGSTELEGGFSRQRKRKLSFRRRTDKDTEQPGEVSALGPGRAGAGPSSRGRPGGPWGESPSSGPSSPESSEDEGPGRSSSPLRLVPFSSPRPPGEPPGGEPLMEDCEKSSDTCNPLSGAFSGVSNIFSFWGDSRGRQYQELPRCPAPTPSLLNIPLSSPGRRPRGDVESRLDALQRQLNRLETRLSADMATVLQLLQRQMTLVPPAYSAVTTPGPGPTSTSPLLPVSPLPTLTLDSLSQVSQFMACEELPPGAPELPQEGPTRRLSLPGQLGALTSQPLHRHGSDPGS

Structure (SMILES) | Binding values, % Mean ([1]; 1 μM) [%] | Binding values, % Mean ([1]; 5 μM) [%] | Binding values, % Mean ([1]; 20 μM) [%] | Fold increase (over baseline) [2, 5] | Mean ± SD [2, 5] | Fold increase (over baseline) [2, 6] | Mean ± SD [2, 6] | Fold increase (over baseline) [2, 7] | inhibition at 0.1 µM [3] [%] | inhibition at 0.3 µM [3] [%] | inhibition at 1 µM [3] [%] | inhibition at 3 µM [3] [%] | inhibition at 10 µM [3] [%] | inhibition at 30 µM [3] [%] | inhibition at 100 µM [3] [%] | effect on JC-10 (mitochondrial depolarization) [4]
O=C(Cn1cnc2c1CCCC2)Nc1ccc(-c2ccccc2)cc1 [Compound 1] | 83 | 99 | 103 | 0.23 | 0.5 ± 0.7 revertant colonies per plate | 0.45 | 1 ± 1.41 revertant colonies per plate | 0.45 | -0.1 | -2 | -0.6 | -1.8 | -3.9 | -2.5 | 0.1 | did not show an effect
CC(C)c1nccn1CC(=O)Nc1ccc(-c2ccccc2)cc1 [Compound 2] | 47 | 74 | 91 | 0.68 | 1.5 ± 2.12 revertant colonies per plate | 0.45 | 1 ± 0 revertant colonies per plate | 0.23 | -1.8 | 2.8 | 1.2 | 5.6 | 2.6 | 2.4 | 14.7 | did not show an effect
CC(C)(C)Sc1ccc(NC(=O)Cn2ccnc2)cc1 [Compound 3] | 41 | 115 | 99 | 0.45 | 1 ± 1.41 revertant colonies per plate | 0.23 | 0.5 ± 0.7 revertant colonies per plate | 5.68 | -2.1 | 0.2 | 2.4 | 3.9 | 2.6 | -0.1 | 0.5 | did not show an effect
O=C(Cn1ccnc1-c1ccccn1)Nc1ccc(-c2ccccc2)cc1 [Compound 4] | 26 | 27 | 22 | 0.23 | 0.5 ± 0.7 revertant colonies per plate | 0 | 0 ± 0 revertant colonies per plate | 0.23 | -1.8 | 0.1 | 0.8 | 5.4 | -1.4 | -3.8 | -5.5 | did not show an effect
Cc1nc2c(c(N3CCCN(Cc4ccccc4)CC3)n1)CCCC2 [Compound 31] | 45 | 73 | 88 | 0.45 | 1 ± 1.41 revertant colonies per plate | 0 | 0 ± 0 revertant colonies per plate | 0.23 | 2 | -0.8 | -1.5 | -0.9 | -2.2 | -5.4 | -17.7 | significantly increased depolarization of mitochondria

— patent US11401255B2, “Small molecule activators of Parkin enzyme function” (Mayo Foundation for Medical Education and Research, priority 2016, dated 2022)
